Experimental data from patent publication US10973822B2, “Combination therapy for treatment of hematological cancers and solid tumors” (Celgene Corporation, priority 2015, dated 2021).

What was measured:
[1] = tested on: DLBCL, FL and T-cell lymphomas; details: monotherapy; cited from earlier work
[2] = tested on: acute myeloid leukemia (AML) at relapse; details: administered alone; cited from earlier work
advanced melanoma = details: patients with advanced melanoma; Hodi et al. 2010; cited from earlier work
[3] = tested on: CD4+ T cells co-cultured with monocyte-derived DC; assay: Mixed lymphocyte reaction (MLR) assay; format: cell-based, human; details: for IL-2 secretion compared to either single agent: 48 hours
Protocol: In one exemplary study, monocytes were isolated from buffy coat using Easy Sep kit (StemCell Technologies) and cultured in RPMI supplemented with 10% FBS, IL-4, and GM-CSF for 7 days. On day 7, CD4+ T cells were isolated from leukopak using Easy Sep kit (StemCell Technologies) and co-cultured with Monocyte-derived DC (MDC) using a 10:1 ratio. Secreted IL-2 was quantified by ELISA at 48 hours and IFNγ was measured at 5 days. Throughout the experiment, surface marker expression was determined by flow cytometry. The results are shown in FIG. 3A (IL-2, 10 nM Compound A), FIG. 3B (IL-2, 100 nM Compound A), and FIG. 4A (IFNγ, 100 nM). Compound A in combination with nivolumab enhanced IL-2 and IFNγ secretion in the mixed lymphocyte reaction. In another exemplary study, monocytes were isolated from healthy donor buffy coat (Stem Cell Technologies) and cultured with 500 U/ml IL-4 and 250 U/ml GM-CSF (R&D Systems) for 7 days until the monocytes differentiated into dendritic cells (DC) by culturing with media containing a cocktail of IL-4 and GM-CSF for 7 days. On day 7, CD4^+ T cells from a different healthy donor were isolated from a leukopak (Stem Cell Technologies). The DC and T cells were mixed at a ratio of 1:10 and co-cultured for 5 days with Compound A and nivolumab (obtained from Blue Door Pharma) or anti-PD-L1 (anti-human CD274 (B7-H1) clone 29E.2A3, obtained from BioLegend, Cat #329716, lot B197650). Supernatants were harvested for IL-2 ELISA at 48 hours (R&D Systems) and for IFNγ ELISA at 5 days (Thermo Fisher Scientific). Monocytes, DC, T cells, and mixed lymphocytes were stained for flow cytometric analysis of CD14, HLA-DR, CD80, CD86, CD83, CD40, CD3, PD-1, PD-L1 surface expression markers throughout the duration of the experiment.

[4] = tested on: anti-CD3/CD28 stimulated PBMCs (NK, NKT, CD4+ and CD8+ T cell); assay: Lymphocyte proliferation assay; format: cell-based, human; details: combination of Compound A with nivolumab, 6 days
Protocol: To further explore immune activation resulting from the combination of Compound A and nivolumab, proliferation of immune cell subsets including NK, NKT, CD4+ and CD8+ T cell was examined. CellTrace Violet (Thermo Fisher) labeled PBMCs from healthy volunteers were treated with Compound A and nivolumab in combination or as single agent, and stimulated with soluble anti-CD3/CD28 (Stem Cell Technologies) for 6 days. Cells were collected and flow cytometry was performed to assay for surface expression of CD3, CD4, CD8, and CD56 (BD Biosciences). Dead cells were excluded by live/dead fixable stain (ThermoFisher Scientific). Prior to flow cytometry, CountBright beads (Thermo Fisher Scientific) were added to examine changes in absolute cell count.

[5] = tested on: JHH4, a PD-L1 positive HCC cell line; assay: PBMC mediated natural cytotoxicity against JHH4; format: cell-based, human; details: p<0.05, FIG. 6
[6] = tested on: LPS-stimulated hPBMC and human whole blood; assay: Cytokine modulation in LPS-stimulated hPBMC and human whole blood; format: cell-based
Description: TNF-α is an inflammatory cytokine produced by macrophages and monocytes during acute inflammation. TNF-α is responsible for a diverse range of signaling events within cells. TNF-α may play a pathological role in cancer. Without being limited by theory, one of the biological effects exerted by Compound A is the reduction of synthesis of TNF-α. Compound A enhances the degradation of TNF-α mRNA.

SEB-stimulated PBMC = assay: 5 day SEB-stimulated PBMC assay (IL-2 ELISA); format: cell-based, human; details: for IL-2 secretion compared to either single agent: 5 days
Protocol: In one exemplary study, PBMC cells were pretreated with Compound A for 1 hour, then SEB/CPI were added for 5 days, IL-2 elisa on day 5. The results are shown in FIG. 2A (Compound A in combination with nivolumab), FIG. 2B (Compound A in combination with a surrogate commercial anti-PD-1 antibody from BioLegend), and FIG. 2C (Compound A in combination with a surrogate commercial anti-PD-L1 antibody from BioLegend).
In another exemplary study, Compound A treated PBMCs from healthy donors were stimulated with 10 pg/ml of SEB (ThermoFisher Scientific) followed by addition of nivolumab (obtained from Blue Door Pharma), anti-PD1 (anti-human CD279 clone EH12.2H7, obtained from BioLegend, Cat #329926, lot B194623), and anti-PD-L1 (anti-human CD274 (B7-H1) clone 29E.2A3, obtained from BioLegend, Cat #329716, lot B197650) blocking antibodies. After 5 days of incubation, supernatants were collected and an ELISA for IL-2 (BD Biosciences) was utilized to examine secreted IL-2.

[7] = tested on: murine liver cancer cell line (BNL-1MEA); assay: Orthotopic HCC (liver cancer) model; format: in vivo, mice; details: Compound A in combination with anti-CTLA-4 antibody; 22 days of treatment; FIG. 1
Protocol: The effects of Compound A in combination with checkpoint inhibitors were investigated in an orthotopic HCC model. The orthotopic HCC model was established by injecting about 2×10^5 murine liver cancer cell line (BNL-1MEA) cells into the sub-capsular area of the left liver lobe of male BALB/c or SCID mice at age of 6-7 weeks. Mice were randomized to different treatment groups on day 6 after tumor implantation. Tumor volumes were measured after 22 days of treatment with Compound A alone, the checkpoint inhibitor alone, and Compound A in combination with the checkpoint inhibitor by using the following formula: volume [mm^3]=[width]^2×length×0.5. Tumor tissues were cut into small pieces, followed by incubation with HBSS containing collagenase type I (0.05 mg/ml), collagenase type IV (0.05 mg/ml), hyaluronidase (0.025 mg/ml), DNase (0.01 mg/ml) and soybean trypsin inhibitor (1 mg/ml) (all from Sigma-Aldrich) for 15 minutes. TILs were recovered by using Ficoll-Paque gradient and subjected to lymphocyte subpopulations analysis by flow cytometry (FACScan Caliber, Becton Dickinson; data processed by using the […] Software, BD Biosciences Pharmingen). CD4+ T cells, CD8+ T cells, NK cells, or NKT cells were determined by double staining with specific antibodies recognizing murine CD3 (clone 145-2C11), CD4 (cone GK1.5), CD8 (clone 53-6.7), or Pan-NK (clone DX5)(BD Biosciences Pharmingen). […]

[8] = tested on: CD4+ and CD8+ T cells and autologous CLL tumor cells; assay: Immunological synapse bioassay in CLL cells; format: cell-based, human
[9] = Compound A 0.01-1 μM for 24 h, compared to vehicle treated cells, P<0.01
[10] = synapse with PD-L1+ tumor cells

## nivolumab: human IgG4 anti-PD-1 monoclonal antibody
[1]
  antitumor activity: has shown antitumor activity

## CT-011: anti-PD-1 antibody, a humanized antibody
[2]
  response in treating AML at relapse: failed to show response

## ipilimumab: fully human monoclonal IgG antibody that binds to CTLA-4
Advanced melanoma
  overall survival: overall survival benefit

## Cc1nc2cccc(N)c2c(=O)n1C1CCC(=O)NC1=O (centres unmarked) [Compound A, 3-(5-amino-2-methyl-4-oxo-4H-quinazolin-3-yl)-piperidine-2,6-dione]
[3]; Compound A (10 nM, 100 nM) in combination with nivolumab, ELISA at 48 hours, FIG. 3A, 3B
  IL-2 secretion: enhanced
[3]; Compound A (100 nM) in combination with nivolumab, 5 days, FIG. 4A
  IFNγ secretion: enhanced
[3]; Compound A with anti-PD-L1, synergy at 1-10 μg/ml anti-PD-L1, FIG. 3D
  IL-2 secretion compared to either single agent: synergistic IL-2 secretion
[3]; Compound A with anti-PD-L1 between 0.1-10 μg/ml, 5 days of co-culture, FIG. 4C
  IFNγ secretion: increased synergistically
[3]; Compound A with nivolumab between 0.1-10 μg/ml, 5 days of co-culture, FIG. 4B
  IFNγ secretion: increased synergistically
[3]; Compound A with nivolumab, synergy between 0.01-10 μg/ml nivolumab, FIG. 3C
  IL-2 secretion compared to either single agent: synergistic IL-2 secretion
[4]; FIG. 5A
  proliferation in NK cells (absolute cell numbers): enhanced proliferation
[4]; FIG. 5B
  proliferation in NKT cells (absolute cell numbers): enhanced proliferation
[4]; FIG. 5C
  proliferation in CD4+ T-cells (absolute cell numbers): but not CD4+ T-cells
[4]; FIG. 5D
  proliferation in CD8+ T-cells (absolute cell numbers): enhanced proliferation
[5]; 50 nM Compound A combined with 1 μg/ml anti-PD-L1
  PBMC-mediated cell killing of HCC cell line JHH4: significantly enhanced
[5]; 50 nM Compound A combined with 1-10 μg/ml nivolumab
  PBMC-mediated cell killing of HCC cell line JHH4: significantly enhanced
[6]
  IL-1β inhibition: potently inhibits
  IL-10 stimulation: stimulates
  TNF-α inhibition: markedly inhibits
SEB-stimulated PBMC; 40 nM Compound A with anti-PD-1 blocking antibody, synergy above 1 μg/ml anti-PD-1, FIG. 2E
  IL-2 secretion compared to either single agent: synergistic IL-2 secretion
SEB-stimulated PBMC; 40 nM Compound A with anti-PD-L1 blocking antibody, synergy above 10 μg/ml anti-PD-L1, FIG. 2F
  IL-2 secretion compared to either single agent: synergistic IL-2 secretion
SEB-stimulated PBMC; 40 nM Compound A with nivolumab, synergy between 0.1-100 μg/ml nivolumab, FIG. 2D
  IL-2 secretion compared to either single agent: synergistic IL-2 secretion
SEB-stimulated PBMC; Compound A pretreatment 1 hour, then SEB/CPI (nivolumab, anti-PD-1 or anti-PD-L1) for 5 days, FIG. 2A-2C
  IL-2 secretion: synergistically enhanced IL-2 secretion
[7]
  anti-tumor efficacy in term of tumor volume: significant synergistic anti-tumor efficacy
[8]; [9]
  formation of F-actin immune synapses (area size): increased
  number of T cells recognizing tumor cells (% conjugation formation): dramatically enhanced
[8]; Compound A with anti-CTLA-4 blocking antibody, FIG. 7A
  T cell synapse activity compared to immunotherapy alone: increased T cell synapse activity
[8]; Compound A with anti-PD-1 blocking antibody, FIG. 7B
  T cell synapse activity compared to immunotherapy alone: increased T cell synapse activity
[8]; Compound A with anti-PD-L1 blocking antibody, FIG. 7C
  T cell synapse activity compared to immunotherapy alone: increased T cell synapse activity
[8]; P<0.01
  synapse strength (total fluorescence intensity of F-actin per T cell:APC conjugate): increased significantly
[8]; dose-dependent, P<0.01
  recruitment of inducible co-stimulator (ICOS) to the synapse: increased recruitment
[8]; [10]
  polarized expression of CTLA-4 at the synapse: increased polarized expression
  polarized expression of PD-1 at the synapse: increased polarized expression
